We go through 14 compounds from ChEMBL document CHEMBL4706703, “Novel 3-benzylidene/benzylphthalide Mannich base derivatives as potential multifunctional agents for the treatment of Alzheimer's disease” (Bioorg Med Chem, 2021).

Data set [1] deals with T1, Amine oxidase [flavin-containing] B (Homo sapiens, UniProt P27338).
T1 sequence (P27338 whole entry): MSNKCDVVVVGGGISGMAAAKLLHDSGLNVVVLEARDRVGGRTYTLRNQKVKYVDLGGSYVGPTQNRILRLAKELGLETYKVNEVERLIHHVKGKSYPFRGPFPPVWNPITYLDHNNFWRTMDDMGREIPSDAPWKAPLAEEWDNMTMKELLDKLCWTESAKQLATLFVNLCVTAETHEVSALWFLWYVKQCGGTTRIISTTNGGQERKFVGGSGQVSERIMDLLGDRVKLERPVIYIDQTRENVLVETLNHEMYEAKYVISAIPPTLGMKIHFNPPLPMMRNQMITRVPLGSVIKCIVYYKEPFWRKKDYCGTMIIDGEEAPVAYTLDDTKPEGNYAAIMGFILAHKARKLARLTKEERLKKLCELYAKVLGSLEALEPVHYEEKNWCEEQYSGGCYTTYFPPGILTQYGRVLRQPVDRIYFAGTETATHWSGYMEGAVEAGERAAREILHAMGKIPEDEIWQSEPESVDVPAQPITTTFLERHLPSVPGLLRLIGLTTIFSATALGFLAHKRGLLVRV
Put plainly: Inhibition of recombinant human MAOB at 10 uM using kynuramine as substrate preincubated for 30 mins followed by substrate addition and measured after 30 mins by fluorescence assay relative to control. The note with it: 0.5 h.

Data set [2] addresses Amyloid-beta precursor protein (Homo sapiens) (UniProt P05067). Put plainly: Inhibition of amyloid beta (1 to 42) (unknown origin) self aggregation at 25 uM after 24 hrs by thioflavin-T fluorescence method relative to control.
Data set [3] concerns the target butyrylcholinesterase (BuChE) (Rattus norvegicus, UniProt Q9JKC1). In words: Inhibition of rat serum BuChE at 10 uM using butyrylthiocholine iodide as substrate incubated for 15 mins by Ellman's method relative to control. It is filed as cell-free. The note with it: probe butyrylthiocholine iodide. (DTNB colorimetry detects thiols as they appear.)
The target of a further data set is T2, MAO-A (Homo sapiens, UniProt P21397).
T2 sequence (P21397 whole entry): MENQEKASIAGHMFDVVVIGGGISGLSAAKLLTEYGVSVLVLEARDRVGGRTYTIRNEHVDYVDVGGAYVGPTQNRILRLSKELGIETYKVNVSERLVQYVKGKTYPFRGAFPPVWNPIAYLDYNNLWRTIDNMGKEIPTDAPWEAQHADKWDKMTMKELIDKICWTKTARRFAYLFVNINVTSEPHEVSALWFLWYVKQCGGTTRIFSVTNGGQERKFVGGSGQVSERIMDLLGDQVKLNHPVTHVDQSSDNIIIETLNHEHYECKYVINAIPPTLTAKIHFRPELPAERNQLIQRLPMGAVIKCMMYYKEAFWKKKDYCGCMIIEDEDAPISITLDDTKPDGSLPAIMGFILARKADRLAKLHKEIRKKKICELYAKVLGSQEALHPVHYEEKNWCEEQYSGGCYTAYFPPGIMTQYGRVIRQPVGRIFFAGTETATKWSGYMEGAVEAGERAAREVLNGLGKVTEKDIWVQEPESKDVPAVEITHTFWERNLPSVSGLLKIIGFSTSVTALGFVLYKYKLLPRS
In words: Inhibition of recombinant human MAOA at 10 uM using kynuramine as substrate preincubated for 30 mins followed by substrate addition and measured after 30 mins by fluorescence assay relative to control. The note with it: probe kynuramine, time 60 min.

For another data set, the target named is Acetylcholinesterase (Electrophorus electricus, UniProt O42275). Put plainly: Inhibition of Electrophorus electricus AChE using acetylthiocholine iodide as substrate incubated for 15 mins by Ellman's method.
Data set [4] is described as follows: Antioxidant activity assessed as trolox equivalent of AAPH radical scavenging activity measured every min for 90 mins by ORAC-FL assay. It is filed as functional.
Data set [5] addresses Acetylcholinesterase (Electrophorus electricus) (UniProt O42275). Put plainly: Inhibition of Electrophorus electricus AChE at 10 uM using acetylthiocholine iodide as substrate incubated for 15 mins by Ellman's method relative to control.

Chain of butyrylcholinesterase (BuChE) (Q9JKC1 whole entry): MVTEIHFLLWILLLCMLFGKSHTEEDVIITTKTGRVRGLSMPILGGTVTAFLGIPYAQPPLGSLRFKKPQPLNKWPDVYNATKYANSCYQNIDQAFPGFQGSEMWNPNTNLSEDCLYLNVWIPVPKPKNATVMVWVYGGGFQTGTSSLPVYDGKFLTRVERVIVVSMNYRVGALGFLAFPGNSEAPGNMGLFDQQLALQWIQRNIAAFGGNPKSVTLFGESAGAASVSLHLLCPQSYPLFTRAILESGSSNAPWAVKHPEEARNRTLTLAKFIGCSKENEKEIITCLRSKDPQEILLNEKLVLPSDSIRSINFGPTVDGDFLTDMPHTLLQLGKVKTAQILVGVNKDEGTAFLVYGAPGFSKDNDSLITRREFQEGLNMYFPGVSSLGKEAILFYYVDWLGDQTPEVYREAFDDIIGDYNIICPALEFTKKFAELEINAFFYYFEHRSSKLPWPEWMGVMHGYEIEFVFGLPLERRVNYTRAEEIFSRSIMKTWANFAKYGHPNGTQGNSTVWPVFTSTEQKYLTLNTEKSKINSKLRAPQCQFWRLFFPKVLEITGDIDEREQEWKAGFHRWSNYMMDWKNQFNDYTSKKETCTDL
Chain of Acetylcholinesterase (O42275 whole entry): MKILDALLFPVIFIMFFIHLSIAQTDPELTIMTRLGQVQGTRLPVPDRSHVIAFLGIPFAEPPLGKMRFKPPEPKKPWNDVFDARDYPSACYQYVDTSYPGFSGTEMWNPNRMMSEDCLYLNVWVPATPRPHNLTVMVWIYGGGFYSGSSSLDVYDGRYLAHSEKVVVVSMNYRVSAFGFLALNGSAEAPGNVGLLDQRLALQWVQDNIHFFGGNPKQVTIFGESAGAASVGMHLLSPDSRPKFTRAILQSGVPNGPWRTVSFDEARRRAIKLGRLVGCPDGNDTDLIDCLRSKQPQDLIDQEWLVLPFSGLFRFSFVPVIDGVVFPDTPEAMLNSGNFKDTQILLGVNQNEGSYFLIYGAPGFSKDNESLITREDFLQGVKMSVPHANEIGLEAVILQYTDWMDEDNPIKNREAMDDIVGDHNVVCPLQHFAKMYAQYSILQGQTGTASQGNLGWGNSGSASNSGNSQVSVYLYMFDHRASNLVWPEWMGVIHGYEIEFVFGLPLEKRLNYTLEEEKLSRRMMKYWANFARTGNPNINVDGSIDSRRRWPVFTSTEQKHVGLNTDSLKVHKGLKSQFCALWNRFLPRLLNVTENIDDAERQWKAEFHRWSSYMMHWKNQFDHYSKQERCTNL
Chain of Acetylcholinesterase (Electrophorus electricus) (O42275 24-633 limits assumed): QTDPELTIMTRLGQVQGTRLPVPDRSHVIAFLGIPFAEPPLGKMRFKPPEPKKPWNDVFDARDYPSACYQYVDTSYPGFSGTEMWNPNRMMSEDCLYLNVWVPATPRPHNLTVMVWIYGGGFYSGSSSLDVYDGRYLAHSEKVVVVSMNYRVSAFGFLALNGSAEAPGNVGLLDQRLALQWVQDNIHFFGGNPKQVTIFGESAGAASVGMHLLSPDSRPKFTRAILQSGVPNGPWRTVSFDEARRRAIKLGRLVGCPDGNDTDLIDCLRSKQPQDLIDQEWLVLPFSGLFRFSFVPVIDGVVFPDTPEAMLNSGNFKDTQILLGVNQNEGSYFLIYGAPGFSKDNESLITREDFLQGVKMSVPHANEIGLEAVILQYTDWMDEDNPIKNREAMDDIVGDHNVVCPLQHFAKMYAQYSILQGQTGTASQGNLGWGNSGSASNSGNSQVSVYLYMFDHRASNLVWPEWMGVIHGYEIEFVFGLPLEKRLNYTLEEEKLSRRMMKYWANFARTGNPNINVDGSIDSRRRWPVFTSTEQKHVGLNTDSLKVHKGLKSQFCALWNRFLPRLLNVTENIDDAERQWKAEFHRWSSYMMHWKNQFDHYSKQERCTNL
Chain of Amyloid-beta precursor protein (Homo sapiens) (P05067 whole entry): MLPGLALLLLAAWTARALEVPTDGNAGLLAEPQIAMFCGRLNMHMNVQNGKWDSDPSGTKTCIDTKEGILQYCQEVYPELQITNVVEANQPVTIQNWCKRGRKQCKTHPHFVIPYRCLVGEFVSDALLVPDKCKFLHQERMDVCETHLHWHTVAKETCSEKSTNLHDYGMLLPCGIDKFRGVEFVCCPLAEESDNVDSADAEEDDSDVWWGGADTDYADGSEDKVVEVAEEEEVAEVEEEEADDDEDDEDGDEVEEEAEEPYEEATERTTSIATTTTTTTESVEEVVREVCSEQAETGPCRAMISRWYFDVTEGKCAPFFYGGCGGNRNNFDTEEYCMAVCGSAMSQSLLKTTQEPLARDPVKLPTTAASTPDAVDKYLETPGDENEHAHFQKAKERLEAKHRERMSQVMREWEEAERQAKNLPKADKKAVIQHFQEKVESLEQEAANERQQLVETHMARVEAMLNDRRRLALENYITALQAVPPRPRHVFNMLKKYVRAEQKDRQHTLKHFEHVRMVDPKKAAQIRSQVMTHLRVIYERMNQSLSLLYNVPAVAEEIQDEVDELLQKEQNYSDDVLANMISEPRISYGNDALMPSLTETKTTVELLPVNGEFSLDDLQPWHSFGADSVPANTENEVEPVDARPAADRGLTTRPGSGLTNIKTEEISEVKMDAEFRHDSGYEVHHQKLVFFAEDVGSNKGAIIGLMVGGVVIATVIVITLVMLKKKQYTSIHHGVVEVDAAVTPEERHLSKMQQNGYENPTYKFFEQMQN

The inhibition is how much of the control response was suppressed. A word on the IC50: it is the concentration needed to halve the response being measured. A lower IC50 goes with higher potency. On to `COc1cc2c(cc1OC)/C(=C/c1ccc(N3CCOCC3)c(O)c1)OC2=O`, for which the inhibition at 10 µM in data set [1] was determined as 50.2%. The inhibition in data set [2] came out at 26.7%. For the same compound, the inhibition at […], 10 µM in data set [3] is < 5%. Further, the inhibition at 0.5 h, 10 µM on MAO-A was determined as 5.3%. On Acetylcholinesterase, this compound displayed an IC50 of 9.68 µM. Besides, in data set [4], the Activity stood at 1.77 equiv.
For the compound `COc1cc2c(cc1OC)/C(=C\c1cccc(O)c1N1CCCCC1)OC2=O`, the inhibition at 10 µM in data set [1] was 24.2%. Besides, the inhibition at […], 10 µM in data set [3] is 16.4%. The inhibition in data set [5] was 42.8%. Besides, the inhibition at 0.5 h, 10 µM at MAO-A was < 5%. The Activity in data set [4] was 2.58 equiv.
Consider `COc1cc2c(cc1OC)/C(=C\c1cccc(O)c1N1CCN(C)CC1)OC2=O`, for which, in data set [1], the inhibition at 10 µM came to 13.2%. Further, in data set [3], the inhibition at […], 10 µM was 5.9%. The inhibition at 0.5 h, 10 µM on MAO-A is 10%. This compound also yielded a half-inhibitory concentration (IC50) at Acetylcholinesterase of 12.4 µM. Besides, the Activity in data set [4] turned out to be 1.38 equiv.
`COc1cc2c(cc1OC)C(Cc1cccc(O)c1N1CCCC1)OC2=O` (configuration not stated): the inhibition at 10 µM in data set [1] stood at 11.3%. The same compound gave an inhibition at […], 10 µM in data set [3] of 7.1%. The compound also had an inhibition in data set [5] of 19.4%. The inhibition at 0.5 h, 10 µM on MAO-A is 10.5%. For the same compound, the Activity in data set [4] was 1.86 equiv.
The like results for `COc1cc2c(cc1OC)/C(=C/c1cccc(O)c1N1CCOCC1)OC2=O` were, in that order, 27.9%, < 5%, 15.1%, 6.6% and 1.48 equiv.
With `COc1cc2c(cc1OC)C(Cc1cccc(O)c1N1CCN(C)CC1)OC2=O` (configuration not stated), in data set [1], the inhibition at 10 µM is < 5%. Moreover, in data set [3], the inhibition at […], 10 µM is < 5%. In addition, the inhibition in data set [5] came out at 14%. The inhibition at 0.5 h, 10 µM at MAO-A was < 5%. Also, the Activity in data set [4] worked out at 2.13 equiv.
In the case of `COc1cc2c(cc1OC)/C(=C\c1ccc(N3CCOCC3)c(O)c1)OC2=O`, in data set [1], the inhibition at 10 µM stood at 13%. In data set [2], this compound displayed an inhibition of 24.9%. The compound also yielded an inhibition at […], 10 µM in data set [3] of 5.7%. Besides, the inhibition at 0.5 h, 10 µM at MAO-A was determined as 18.7%. Also, the IC50 on Acetylcholinesterase was 2.43 µM. Also, the Activity in data set [4] is 1.76 equiv.
For `CCN(CC)c1c(O)cccc1/C=C1/OC(=O)c2cc(OC)c(OC)cc21`, the inhibition at 10 µM in data set [1] was found to be 44.6%. Also, the inhibition at […], 10 µM in data set [3] amounted to 31.4%. For the same compound, the inhibition in data set [5] was 46.9%. Also, at MAO-A, the inhibition at 0.5 h, 10 µM is < 5%. For the same compound, in data set [4], the Activity stood at 2.53 equiv.
The like results for `CCN(CC)c1c(O)cccc1/C=C1\OC(=O)c2cc(OC)c(OC)cc21` were, in that order, 44.9%, < 5%, 38%, < 5% and 2.87 equiv.
As for `COc1cc2c(cc1OC)/C(=C/c1cccc(O)c1N1CCN(C)CC1)OC2=O`, in data set [1], the inhibition at 10 µM came to 29.5%. In addition, in data set [3], the inhibition at […], 10 µM is < 5%. In data set [5], the inhibition is 22.3%. Further, the inhibition at 0.5 h, 10 µM at MAO-A was < 5%. For the same compound, the Activity in data set [4] came to 2.09 equiv.
On to `COc1cc2c(cc1OC)C(Cc1ccc(N3CCN(C)CC3)c(O)c1)OC2=O` (configuration not stated), for which the inhibition at 10 µM in data set [1] turned out to be 17%. The inhibition at […], 10 µM in data set [3] was < 5%. In data set [5], the inhibition turned out to be 42.4%. The inhibition at 0.5 h, 10 µM at MAO-A came to 5.6%. The Activity in data set [4] was 2.09 equiv.
Regarding `COc1cc2c(cc1OC)/C(=C\c1ccc(N3CCN(C)CC3)c(O)c1)OC2=O`, the inhibition at 10 µM in data set [1] was 31.4%. This compound registered an inhibition at […], 10 µM in data set [3] of 5.5%. In addition, the inhibition at 0.5 h, 10 µM on MAO-A turned out to be 5%. Further, on Acetylcholinesterase, the IC50 is 2.63 µM. Besides, in data set [4], the Activity is 2.36 equiv.
Turning to `COc1cc2c(cc1OC)/C(=C/c1cccc(O)c1N1CCCC1)OC2=O`, in data set [1], the inhibition at 10 µM came to 10.3%. In data set [3], this compound yielded an inhibition at […], 10 µM of 8.8%. For the same compound, the inhibition at 0.5 h, 10 µM on MAO-A was < 5%. Further, 8.86 µM corresponded to half-maximal inhibition on Acetylcholinesterase (IC50). Also, in data set [4], the Activity came out at 2.18 equiv.
Taken in the same sequence, the figures for `COc1cc2c(cc1OC)/C(=C\c1cccc(O)c1N1CCCC1)OC2=O` were 12.5%, 49.6%, < 5%, 19.5 µM and 2.46 equiv.
